Data: US6583139B1, “Compounds which inhibit leukocyte adhesion mediated by VLA-4” (priority 1997, dated 2003)
Where a SMILES comes first, the peptide text is derived from it. The star is where a group is joined. Tos = Cc1ccc(S(=O)(=O)*)cc1; tBu = CC(C)(C)*

test system: not given; assay: not given; settings: not given

Molecule | melting point
Cc1ccc(S(=O)(=O)N2CCC[C@H]2C(=O)N[C@@H](C)C(=O)O)cc1 [Example 16, N-(Toluene-4-sulfonyl)-L-prolyl-L-alanine] (Tos-Pro-Ala-OH) | 160.5 to 162.5 °C
Cc1ccc(S(=O)(=O)N2CCC[C@H]2C(=O)N[C@@H](CC(=O)O)C(=O)O)cc1 [Example 19, N-(Toluene-4-sulfonyl)-L-prolyl-L-aspartic acid] (Tos-Pro-Asp-OH) | 174 to 176 °C
Cc1ccc(S(=O)(=O)N[C@@H](CCC(=O)O)C(=O)N[C@@H](Cc2ccc(O)cc2)C(=O)O)cc1 [Example 30, N-(Toluene-4-sulfonyl)-L-glutamyl-L-tyrosine] (Tos-Glu-Tyr-OH) | 173 to 175 °C
Cc1ccc(S(=O)(=O)N2CCC[C@H]2C(=O)N[C@@H](Cc2ccc(OCCN(Cc3ccccc3)Cc3ccccc3)cc2)C(=O)O)cc1 [Example 45, N-(Toluene-4-sulfonyl)-L-prolyl-L-O-[2-(dibenzylamino)ethyl]-tyrosine] | 106 to 110 °C
Cc1ccc(S(=O)(=O)N2CCC[C@H]2C(=O)N[C@@H](Cc2ccc(NC(=O)Nc3ccc(C#N)cc3)cc2)C(=O)O)cc1 [Example 49, N-(Toluene-4-sulfonyl)-L-prolyl-L-4-[3-(4-cyanophenyl)-ureido]-phenylalanine] | 163 to 165 °C
Cc1ccc(S(=O)(=O)N2CCC[C@H]2C(=O)N[C@@H](Cc2ccc(C(=O)N[C@@H]3Cc4ccccc4C=N3)cc2)C(=O)O)cc1 [Example 52, N-(Toluene-4-sulfonyl)-L-prolyl-L-4[(3S)-3,4-dihydro-isoquinolin-3-yl-aminocarbonyl]-phenylalanine] | 145 to 150 °C
CC(C)OC(=O)[C@H](Cc1ccc(O)cc1)NC(=O)[C@@H]1CCCN1S(=O)(=O)c1cn(C)cn1 [Example 226, N-(1-Methylimidazol-4-sulfonyl)-L-prolyl-(4-hydroxyl)-L-phenylalanine isopropyl ester] | 159 to 162 °C

test system: Experimental Autoimmune (or Allergic) Encephalomyelitis; assay: Experimental Autoimmune Encephalomyelitis (EAE) model, motor impairment; type: in vivo; settings: rats or guinea pigs; treatment from Day 8, bid for five days, SC, PO or IP

Molecule | active in EAE in vivo assay (delayed the onset of symptoms, e.g. clinical scores no greater than 2 or slowed body weight loss as compared to the control)
Cc1ccc(S(=O)(=O)N2CCC[C@H]2C(=O)N[C@@H](Cc2ccc(OC(C)(C)C)cc2)C(=O)O)cc1 [Example 10, N-(Toluene-4-sulfonyl)-L-prolyl-4-(O-tert-butyl)-L-tyrosine] (Tos-Pro-Tyr(tBu)-OH) | active
N-(Toluene-4-sulfonyl)-L-(5,5-dimethyl) thiaprolyl-L-(N-benzyl)-histidine [Example 27] | active
